# Test results taken from patent US4628062A, “1,4-naphthoquinone derivatives having anti-inflammatory action” (priority 1983, dated 1986).
# Where two headings read alike, the source gives them in different places.
# Experiments:
# [1] = biological target: T1, cyclooxygenase (Mus musculus, UniProt P22437); experiment: inhibition of arachidonic acid metabolism via the cyclooxygenase route (Brune et al.); type: biochemical; settings: read-out: % inhibition of cyclooxygenase at 1 × 10^-5 mol/l
# T1 construct: endogenous in cells
# T1 sequence (P22437 27-602): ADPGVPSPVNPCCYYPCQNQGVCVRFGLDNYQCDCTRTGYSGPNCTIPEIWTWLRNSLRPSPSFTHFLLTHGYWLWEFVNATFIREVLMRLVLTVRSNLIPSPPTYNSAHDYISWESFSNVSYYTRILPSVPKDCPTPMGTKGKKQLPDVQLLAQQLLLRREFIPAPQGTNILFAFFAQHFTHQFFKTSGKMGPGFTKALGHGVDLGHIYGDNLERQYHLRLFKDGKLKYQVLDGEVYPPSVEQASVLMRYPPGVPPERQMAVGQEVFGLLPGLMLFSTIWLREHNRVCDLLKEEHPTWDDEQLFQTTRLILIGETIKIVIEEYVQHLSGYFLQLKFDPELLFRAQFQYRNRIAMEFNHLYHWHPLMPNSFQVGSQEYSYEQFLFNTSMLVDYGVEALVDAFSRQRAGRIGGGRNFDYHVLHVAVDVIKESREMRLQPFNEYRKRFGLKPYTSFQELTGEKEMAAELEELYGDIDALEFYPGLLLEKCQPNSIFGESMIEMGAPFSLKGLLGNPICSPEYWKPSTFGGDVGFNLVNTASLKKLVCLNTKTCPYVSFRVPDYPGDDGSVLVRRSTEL
# [2] = tested on: oedema induced by carrageenan in the rat paw; experiment: inhibition of carrageenan-induced oedema in the rat paw (Winter et al., modified); type: in vivo; settings: po, read-out: % inhibition of carrageenan oedema at 2.5 mg/kg orally
# [3] = tested on: PMN; experiment: inhibition of aggregation of PMN stimulated by LTB4 (Cunningham et al.); type: cell-based; settings: 1 × 10^-4 mol/l
# [4] = biological target: T2, lipoxygenase (Rattus norvegicus, UniProt P12527); experiment: inhibition of arachidonic acid metabolism via the lipoxygenase route: LTB4 release from PMN of the rat after stimulation with Ca ionophor, reverse phase HPLC; type: cell-based; settings: read-out: % inhibition of lipoxygenase at 1 × 10^-5 mol/l
# T2 construct: release of LTB4 from neutrophilic granulocytes (PMN) of the rat; endogenous in cells; host or cells: rat neutrophilic granulocytes (PMN)
# T2 sequence (P12527 1-673): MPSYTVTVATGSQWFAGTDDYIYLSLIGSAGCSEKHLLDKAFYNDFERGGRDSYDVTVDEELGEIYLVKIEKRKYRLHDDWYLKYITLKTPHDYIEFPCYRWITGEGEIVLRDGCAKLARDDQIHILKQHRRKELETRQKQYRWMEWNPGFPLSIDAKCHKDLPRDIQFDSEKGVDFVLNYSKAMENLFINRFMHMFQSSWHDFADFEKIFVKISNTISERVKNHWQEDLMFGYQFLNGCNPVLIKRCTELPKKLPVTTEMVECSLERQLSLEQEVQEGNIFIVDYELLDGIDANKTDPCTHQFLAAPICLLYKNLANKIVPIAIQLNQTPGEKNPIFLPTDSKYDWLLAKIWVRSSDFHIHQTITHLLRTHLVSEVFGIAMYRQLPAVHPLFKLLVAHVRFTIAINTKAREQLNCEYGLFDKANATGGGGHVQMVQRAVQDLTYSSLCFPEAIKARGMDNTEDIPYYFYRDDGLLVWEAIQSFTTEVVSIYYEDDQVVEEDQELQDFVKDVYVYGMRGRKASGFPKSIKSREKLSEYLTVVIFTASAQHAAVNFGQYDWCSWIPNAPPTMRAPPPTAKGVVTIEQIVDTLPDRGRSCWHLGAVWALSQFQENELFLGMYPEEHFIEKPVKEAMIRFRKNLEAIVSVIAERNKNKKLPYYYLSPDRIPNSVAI
# [5] = rat paw, 2.5 mg/kg orally, λ-carrageenan 0.25% suspension in physiological saline
# [6] = 1 × 10^-5 mol/l, LTB4 release from rat PMN, Ca ionophor
SMILES,inhibition at 10 µM [1] [%],"inhibition in vivo at 2.5 mg/kg [2, 5] [%]",inhibition at 100 µM [3] [%],"inhibition at 10 µM [4, 6] [%]",inhibition in vivo at 2.5 mg/kg ([2]; Rattus norvegicus) [%],inhibition at 10 µM [4] [%]
CC1=C(SCC(=O)O)C(=O)c2ccccc2C1=O [Compound 8],72,41,34,100,,
"CCC(=O)NC1=C(OCCOC)C(=O)c2ccccc2C1=O [Compound 13, 2-Propionylamino-3-(2-methoxyethoxy)-1,4-naphthoquinone]",,48,,100,,
NC1=CC(=O)c2cc(S(N)(=O)=O)ccc2C1=O [Compound 6],65,39,77,100,,
"C=CCNC1=CC(=O)c2cc(S(N)(=O)=O)ccc2C1=O [Compound 12, 2-Allylamino-6-sulphamoyl-1,4-naphthoquinone]",38,39,72,100,,
CC(=O)NC1=CC(=O)c2ccccc2C1=O [Compound 7],65,32,49,100,,
COC1=C(OC)C(=O)c2ccccc2C1=O [Compound 4],37,36,79,100,,
"CCOC1=C(NC(C)=O)C(=O)c2ccccc2C1=O [Compound 14, 2-Acetylamino-3-ethoxy-1,4-naphthoquinone]",,49,,100,,
O=C1C=C(O)C(=O)c2ccccc21 [Compound 1],31,,,,34,70
COC1=CC(=O)c2ccccc2C1=O [Compound 2],78,29,76,98,,
CNC(=O)CSC1=C(C)C(=O)c2ccccc2C1=O [Compound 9],89,25,100,100,,
NC1=CC(=O)c2ccccc2C1=O [Compound 5],55,,,,48,100
CC1=C(SCC(=O)NC(C)C)C(=O)c2ccccc2C1=O [Compound 10],89,45,95,100,,
O=C(CSC1=C(SCC(=O)NCCO)C(=O)c2ccccc2C1=O)NCCO [Compound 11],50,45,36,80,,
COCCOC1=CC(=O)c2ccccc2C1=O [Compound 3],45,38,,100,,
